Data on 54 compounds can be found in patent US10500207B2, “Compounds for the treatment of diseases associated with amyloid or amyloid-like proteins” (AC Immune SA, priority 2010, dated 2019).

This experiment addresses Aβ1-42 peptide (Homo sapiens, UniProt P05067). Kind of experiment: Thioflavin T spectrofluorescence assay (ThT-assay): inhibition of Aβ1-42 aggregation (% inhibition at 330 μM; IC50 from dilution series). The following applies: for inhibition at 330 µM: 24 h, read-out: Inhibition at 330 μM [%], ThT assay, 330 μM small molecule, 33 μM Aβ1-42 (10:1), 24 hrs at 37° C., mean ± standard deviation of two independent experiments; for IC50: ThT assay, dilution series 330 μM to 0.08 μM.

Chain of Aβ1-42 peptide (P05067 672-713 limits assumed): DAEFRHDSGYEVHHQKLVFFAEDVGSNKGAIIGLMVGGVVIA
Method: Aβ1-42 lyophilized powder (Bachem) was reconstituted in hexafluoroisopropanol (HFIP) to 1 mM. The peptide solution was sonicated for 15 min at room temperature, agitated overnight, and aliquots were made into non-siliconized microcentrifuge tubes. The HFIP was then evaporated under a stream of argon. The resulting peptide film was dried under vacuum for 10 min, tightly sealed and stored at −80° C. until used.
A positive control without a small molecule was prepared to measure maximum RFU. A negative control without Aβ1-42 was prepared for each small molecule. […] The solutions were then incubated for 24 hrs at 37° C., and the spectrofluorescence (relative fluorescence units; RFU) were read in six replicates in black 384-well assay plates (Perkin-Elmer) on a Perkin-Elmer FluoroCount spectrofluorometer. The inhibition of aggregation is expressed as mean % inhibition±1 standard deviation (SD) according to the following equation:
Racemic compounds and their enantiomers were tested for their ability to inhibit amyloid peptide aggregation using the ThT assay. To determine the IC50, the following dilutions of the compounds were used in the ThT assay described above:

In general, inhibition refers to how much of the control response was suppressed. Consider `c1nc2c(C3CCNCC3)c[nH]c2cc1Nc1ccc2c3c([nH]c2n1)CCCC3` [Example 35], for which the inhibition at 330 µM stood at 97.7 ± 0.3%.

Take `c1ccc(CNc2ccc3cc[nH]c3n2)nc1` [Example 2]: the inhibition at 330 µM was determined as 47.4 ± 8.9%.

Take `c1cc2c(C3CCNCC3)c[nH]c2cc1Nc1ccc2[nH]cc(C3CCNCC3)c2c1` [Example 36]: the inhibition at 330 µM came out at 98.2 ± 0.3%.

Regarding `c1cc2c(cc1Nc1ccc3c(C4CCNCC4)c[nH]c3c1)CCC2` [Example 65], the inhibition at 330 µM came out at 95.9 ± 1.3%.

As for `COC1CCc2c(c3ccc(Nc4ccc5c(c4)OCCO5)nc3n2C)C1` (stereo not shown) [Example 198], the inhibition at 330 µM came to 92.1 ± 0.3%.

Take `COc1ccc(Nc2ccc3c(C4CCNCC4)cn(C)c3c2)cc1F` [Example 98]: the inhibition at 330 µM is 95.3 ± 0.1%.

In the case of `CN1CCC(c2c[nH]c3cc(Nc4cc(F)c(F)c(F)c4)ccc23)CC1` [Example 113], the inhibition at 330 µM was determined as 90.5 ± 0.5%.

On to `CNC1CCc2c(c3ccc(Nc4cc(F)cc(F)c4)nc3n2C)C1` (stereo not shown) [Example 29], for which the inhibition at 330 µM was 85.4 ± 0.4%.

For the compound `Cn1cc(C2CCNCC2)c2cc(Nc3ccc(F)c(F)c3)ccc21` [Example 57], the inhibition at 330 µM is 85.1 ± 3.2%.

`Cn1c2c(c3ccc(Nc4ccc5c(c4)OCC(=O)N5)nc31)CCCC2` [Example 167]: the inhibition at 330 µM came out at 88.9 ± 2.6%.

Consider `Cn1c2c(c3cc(Nc4ccc5c(c4)OCCO5)ccc31)CS(=O)(=O)CC2` [Example 177], for which the inhibition at 330 µM was determined as 29.6 ± 6.2%.

One may read the IC50 as the midpoint of a concentration-inhibition curve. Consider `CNC1CCc2c(c3ccc(Nc4ccc(N5CCOCC5)cc4)nc3n2C)C1` (single isomer, unassigned) [Example 216a], for which the IC50 is, setting by setting: (IC50 μM 1st assay, 1st assay) 99.3 µM; (IC50 μM 2nd assay, 2nd assay) 54.9 µM.

With `COC1CCc2c(c3cc(Nc4ccc5c(c4)OCCO5)ccc3n2C)C1` (stereo not shown) [Example 126], the inhibition at 330 µM is 82.2 ± 2.2%.

For `COCCNC1CCc2c(c3ccc(Nc4ccc(OC)c(OC)c4)nc3n2C)C1` (stereo not shown) [Example 142], the inhibition at 330 µM is 73.2 ± 6.2%.

With `Cn1c2c(c3cc(Nc4ccc(F)nc4)ccc31)CS(=O)(=O)CC2` [Example 183], the inhibition at 330 µM came to 42.3 ± 3.1%.

In the case of `CC(=O)N(C)C1CCc2c(c3ccc(Nc4ccc(N5CCOCC5)cc4)nc3n2C)C1` (stereo not shown) [Example 164], the inhibition at 330 µM is 69.4 ± 2.7%.

Turning to `CN1CCc2ccc(Nc3ccc4c5c(n(C)c4n3)CCCC5)cc2C1` [Example 201], the inhibition at 330 µM is 93.3 ± 0.1%.

Regarding `CNC1CCc2[nH]c3ccc(Nc4ccc5c(C6CCNCC6)cn(C)c5c4)cc3c2C1` (stereo not shown) [Example 108], the inhibition at 330 µM is 98.9 ± 0.5%.

Take `CNC1CCc2c(c3ccc(Nc4ccc(F)c(F)c4)nc3n2C)C1` (single isomer, unassigned) [Example 214a]: the IC50 runs as follows: (IC50 μM 1st assay, 1st assay) 35.4 µM; (IC50 μM 2nd assay, 2nd assay) 33.5 µM.

Turning to `CC(=O)Nc1cccc(Nc2ccc3c(C4CCNCC4)c[nH]c3n2)c1` [Example 143], the inhibition at 330 µM amounted to 64.8 ± 3.7%.

On to `CNC1CCc2c(c3ccc(Nc4ccc5c(c4)OCCCO5)nc3n2C)C1` (stereo not shown) [Example 84], for which the inhibition at 330 µM was found to be 91.7 ± 0.2%.

`CNC1CCc2c(c3ccc(Nc4ccc(N5CCOCC5)cc4)nc3n2C)C1` (racemic) [Example 42]: the inhibition at 330 µM turned out to be 96.2 ± 2.8%. Besides, the IC50 (IC50 μM 1st assay, 1st assay) was determined as 63 µM. Also, where the note is “IC50 μM 2nd assay, 2nd assay”, the IC50 worked out at 112 µM.

With `COc1cc(Nc2ccc3c(C4CCNCC4)cn(C)c3c2)ccc1F` [Example 112], the inhibition at 330 µM came to 91.3 ± 1.3%.

For `c1cc2cc(Nc3ccc4cc[nH]c4n3)ccc2[nH]1` [Example 18], the inhibition at 330 µM turned out to be 97 ± 1.2%.

For the compound `Cn1cc(C2CCNCC2)c2ccc(Nc3ccc(F)c(F)c3)nc21` [Example 67], the inhibition at 330 µM came out at 87.8 ± 4.2%.

In the case of `c1cc2c(cc1Nc1ccc3c(C4CCNCC4)c[nH]c3n1)CCC2` [Example 40], the inhibition at 330 µM worked out at 94.8 ± 1%.

On to `COc1ccc(Nc2ccc3c(C4CCN(C)CC4)cn(C)c3n2)cc1F` [Example 105], for which the inhibition at 330 µM was 96.7 ± 0.7%.

In the case of `CNC1CCc2c(c3ccc(Nc4ccc(C)c(OC)c4)nc3n2C)C1` (stereo not shown) [Example 160], the inhibition at 330 µM was determined as 96.3 ± 0.3%.

Take `CNC1CCc2c(c3ccc(Nc4ccc(F)c(F)c4)cc3n2C)C1` (stereo not shown) [Example 140]: the inhibition at 330 µM was 93.8 ± 0.6%.

In the case of `CN1CCC(c2c[nH]c3cc(Nc4ccc(F)c(F)c4)ccc23)CC1` [Example 22], the inhibition at 330 µM amounted to 84.5 ± 6.8%.

As to `COc1cc(Nc2ccc3c4c(n(C)c3c2)CCC(OC)C4)ccc1F` (stereo not shown) [Example 124], the inhibition at 330 µM stood at 79.1 ± 3.8%.

On to `CNC1CCc2c(c3cc(Nc4ccc(F)c(OC)c4)cnc3n2C)C1` (stereo not shown) [Example 138], for which the inhibition at 330 µM is 69.3 ± 0.7%.

Consider `COc1ccc(Nc2ccc3c(C4CCNCC4)c[nH]c3n2)cc1F` [Example 102], for which the inhibition at 330 µM was determined as 84.1 ± 1.5%.

Regarding `FC(F)(F)c1ccc(Nc2ccc3c(C4CCNCC4)c[nH]c3c2)cn1` [Example 49], the inhibition at 330 µM is 81.9 ± 0.6%.

`c1ccc(Nc2ccc3cc[nH]c3n2)nc1` [Example 9]: the inhibition at 330 µM stood at 70.8 ± 9.2%.

On to `CN1CCC(c2c[nH]c3cc(Nc4ccc5[nH]cc(C6CCN(C)CC6)c5c4)ccc23)CC1` [Example 118], for which the inhibition at 330 µM was 96.8 ± 0.9%.

As to `COc1ccc(Nc2ccc3c(C4CCN(C)CC4)c[nH]c3c2)cc1OC` [Example 91], the inhibition at 330 µM came to 92.5 ± 1.3%.

For `FC(F)(F)c1ccc(Nc2ccc3cc[nH]c3n2)cn1` [Example 4], the inhibition at 330 µM was 53.5 ± 0.4%.

Turning to `Cn1c2c(c3cc(Nc4ccc5c(c4)OCCO5)ccc31)CN(CCCCS(C)(=O)=O)CC2` [Example 209], the inhibition at 330 µM was 66.2 ± 6.5%.

Take `Fc1ccc(Nc2ccc3cc[nH]c3n2)cc1` [Example 10]: the inhibition at 330 µM turned out to be 62.7 ± 4%.

As for `Cn1c2c(c3ccc(Nc4ccc5c(c4)OCCO5)cc31)CN(CCCCS(C)(=O)=O)CC2` [Example 207], the inhibition at 330 µM amounted to 75.6 ± 13.4%.

`COc1cc(Nc2ccc3c(C4CCN(C)CC4)c[nH]c3c2)ccc1F` [Example 114]: the inhibition at 330 µM amounted to 82.2 ± 1.6%.

Consider `c1cc(N2CCOCC2)ccc1Nc1ccc2c(C3CCNCC3)c[nH]c2c1` [Example 73], for which the inhibition at 330 µM amounted to 99.2 ± 0.3%.

In the case of `COC1CCc2c(c3ccc(Nc4ccc(F)cc4)cc3n2C)C1` (stereo not shown) [Example 191], the inhibition at 330 µM is 89.7 ± 1.4%.

In the case of `Cn1cc(C2CCNCC2)c2ccc(Nc3ccc(F)c(F)c3)cc21` [Example 38], the inhibition at 330 µM came to 90.9 ± 2.7%.

Regarding `c1ccc2c(c1)CCC2Nc1ccc2c(C3CCNCC3)c[nH]c2c1` (stereo not shown) [Example 94], the inhibition at 330 µM came to 94.4 ± 3.6%.

As for `CN(c1ccc2c(c1)c(C1CCNCC1)cn2C)c1ccc2c(C3CCNCC3)cn(C)c2c1` [Example 54], the inhibition at 330 µM was determined as 96 ± 2.7%.

As to `CN1CCN(C(=O)c2ccc(Nc3ccc(F)cc3)cc2)CC1` [Example 189], the inhibition at 330 µM amounted to 12.6 ± 5.5%.

`CNC1(C)CCc2c(c3ccc(Nc4ccc(F)c(F)c4)nc3n2C)C1` (stereo not shown) [Example 89]: the inhibition at 330 µM turned out to be 89.6 ± 5%.

On to `c1cc2c(C3CCNCC3)c[nH]c2nc1Nc1ccc2c3c([nH]c2n1)CCCC3` [Example 44], for which the inhibition at 330 µM was determined as 98.1 ± 0.3%.

As for `CNC1CCc2c(c3ccc(Nc4cccc(N5CCN(C)CC5)c4)nc3n2C)C1` (stereo not shown) [Example 80], the inhibition at 330 µM turned out to be 83.3 ± 0.1%.

In the case of `c1cc(N2CCOCC2)ccc1Nc1ccc2c(C3CCNCC3)c[nH]c2n1` [Example 69], the inhibition at 330 µM worked out at 86.5 ± 7.2%.

With `Cn1cc(C2CCNCC2)c2cc(Nc3ccc4c5c([nH]c4n3)CCC5)ccc21` [Example 59], the inhibition at 330 µM was found to be 99 ± 0.3%.

`c1cc2c(C3CCNCC3)c[nH]c2cc1Nc1ccc2c(C3CCNCC3)c[nH]c2n1` [Example 48]: the inhibition at 330 µM came out at 92 ± 0.8%.
